Like-named read-outs stand apart in the source and are kept apart here.
Key:
intracellular HBV DNA = experiment: Real-time PCR for intracellular HBV DNA in HepAD38 cells; format: cell-based; settings: 65 hours treatment
HepAD38 cells = experiment: Cell viability assay (EZ-Cytox), cytotoxicity; format: cell-based; settings: @100 μM, 65 hours
Description: (§1) HepAD38 cells were cultured for 2 days in Dulbecco's Modified Eagle's medium (Welgene, LM001-05) supplemented with 10% FBS without tetracycline. […] After 65 hours of treatment, viability was measured using EZ-Cytox cell viability assay kit (Daeil Lab Service) according to the manufacturer's instructions. The absorbance was measured at 450 nm using a spectrophotometer (Spark, Tecan).

Protein = Protein (Hepatitis B virus genotype D subtype ayw, UniProt P03146); experiment: Protein inhibition rate / EC50 (Table 1, no method described); format: biochemical
Protein, sequence (P03146 whole entry): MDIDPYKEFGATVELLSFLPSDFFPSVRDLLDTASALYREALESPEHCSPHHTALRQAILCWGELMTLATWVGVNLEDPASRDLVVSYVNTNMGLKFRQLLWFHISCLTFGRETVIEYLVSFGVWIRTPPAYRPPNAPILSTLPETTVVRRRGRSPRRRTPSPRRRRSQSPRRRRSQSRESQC

[1] = Cell viability assay (EZ-Cytox), cytotoxicity; format: cell-based; settings: human, HepAD38 cells; for viability at 65 h, 100 µM: read-out: Cytotoxicity % Livability (@100 μM)
Description: as §1

[2] = Hepatitis B virus, HePAD38, 65 h

With “3-(3-chloro-4-fluorophenyl)-1-((1-(hydroxymethyl)-5-(trifluoromethyl)-1H-pyrazol-3-yl)methyl)-1-(6-methoxypyridin-3-yl)urea [Example 79]” the IC50 (intracellular HBV DNA; read-out: IC50) was 19 nM and the “Cytotoxicity % Livability (@100 μM)” value (HepAD38 cells) was 18.5%.
Work on `O=C(Nc1ccc(F)c(Cl)c1)N(Cc1n[nH]c2c1CCCC2)c1ccon1` [Example 132, 3-(3-chloro-4-fluorophenyl)-1-(isoxazol-3-yl)-1-((4,5,6,7-tetrahydro-1H-indazol-3-yl)methyl)urea] yielded an EC50 (Protein) of 5300 nM, an inhibition at 30 µM (Protein) of 86.9% and an IC50 (intracellular HBV DNA; [2]) of 55 nM. It also gave a CC50 at 65 h [1] greater than 100000 nM and a viability at 65 h, 100 µM [1] of 81.9%.
In the case of `COc1ccc(N(Cc2cc(C)[nH]n2)C(=O)Nc2ccc(F)c(Cl)c2)cn1` [Example 50, 3-(3-chloro-4-fluorophenyl)-1-(6-methoxypyridin-3-yl)-1-((5-methyl-1H-pyrazol-3-yl)methyl)urea], the EC50 (Protein) is reported as 3800 nM, the inhibition at 30 µM (Protein) is reported as 94.3% and the IC50 (intracellular HBV DNA; [2]) is reported as 260 nM. For the same molecule, the CC50 at 65 h [1] was greater than 100000 nM.
In the case of `O=C(Nc1ccc(F)c(Cl)c1)N(Cc1n[nH]c2c1CCCC2)c1ccc(=O)[nH]c1` [Example 14, 3-(3-chloro-4-fluorophenyl)-1-(6-oxo-1,6-dihydropyridin-3-yl)-1-((4,5,6,7-tetrahydro-1H-indazol-3-yl)methyl)urea], the EC50 (Protein) is reported as 7300 nM, the inhibition at 30 µM (Protein) is reported as 14% and the IC50 (intracellular HBV DNA; [2]) is reported as 110 nM. It also gave a CC50 at 65 h [1] greater than 100000 nM and a viability at 65 h, 100 µM [1] of 95.4%.
Molecule `COc1ccc(N(Cc2n[nH]c3c2CN(C(C)=O)CC3)C(=O)Nc2ccc(F)c(Cl)c2)cc1` [Example 33, 1-((5-acetyl-4,5,6,7-tetrahydro-1H-pyrazolo[4,3-c]pyridin-3-yl)methyl)-3-(3-chloro-4-fluorophenyl)-1-(4-methoxyphenyl)urea] has an inhibition at 30 µM (Protein) of 77.8%, an IC50 (intracellular HBV DNA; [2]) greater than 1100 nM and a viability at 65 h, 100 µM [1] of 96%.
Work on `COc1ccc(N(Cc2n[nH]c3c2CN(C)CC3)C(=O)Nc2ccc(F)c(Cl)c2)cc1` [Example 37, 3-(3-chloro-4-fluorophenyl)-1-(4-methoxyphenyl)-1-((5-methyl-4,5,6,7-tetrahydro-1H-pyrazolo[4,3-c]pyridin-3-yl)methyl)urea] yielded an inhibition at 30 µM (Protein) of 28.3%, an IC50 (intracellular HBV DNA; [2]) greater than 1100 nM and a viability at 65 h, 100 µM [1] of 22.4%.
With `COC(=O)c1ccc(N(Cc2n[nH]c3c2CCCC3)C(=O)Nc2ccc(F)c(Cl)c2)cc1` [Example 31, methyl 4-(3-(3-chloro-4-fluorophenyl)-1-((4,5,6,7-tetrahydro-1H-indazol-3-yl)methyl)ureido)benzoate] the EC50 (Protein) was 3300 nM, the inhibition at 30 µM (Protein) was 90.4% and the IC50 (intracellular HBV DNA; [2]) was 410 nM. The CC50 at 65 h [1] was greater than 100000 nM and the viability at 65 h, 100 µM [1] was 91.2%.
With `O=C(Nc1ccc(F)c(Cl)c1)N(Cc1n[nH]c2c1CCCC2)c1cc[nH]c(=O)c1` [Example 15, 3-(3-chloro-4-fluorophenyl)-1-(2-oxo-1,2-dihydropyridin-4-yl)-1-((4,5,6,7-tetrahydro-1H-indazol-3-yl)methyl)urea] the EC50 (Protein) was 1400 nM, the inhibition at 30 µM (Protein) was 64.7% and the IC50 (intracellular HBV DNA; [2]) was 310 nM. For the same molecule, the CC50 at 65 h [1] was greater than 100000 nM and the viability at 65 h, 100 µM [1] was 84%.
In the case of `COc1ccc(N(Cc2n[nH]cc2C)C(=O)Nc2ccc(F)c(Cl)c2)cn1` [Example 56, 3-(3-chloro-4-fluorophenyl)-1-(6-methoxypyridin-3-yl)-1-((4-methyl-1H-pyrazol-3-yl)methyl)urea], the EC50 (Protein) is reported as 6600 nM, the inhibition at 30 µM (Protein) is reported as 86.4% and the IC50 (intracellular HBV DNA; [2]) is reported as 400 nM. It also gave a CC50 at 65 h [1] greater than 100000 nM and a viability at 65 h, 100 µM [1] of 98.2%.
Molecule `COc1ccc(N(Cc2n[nH]c3c2CC(F)(F)CC3)C(=O)Nc2ccc(F)c(Cl)c2)cn1` [Example 40, 3-(3-chloro-4-fluorophenyl)-1-((5,5-difluoro-4,5,6,7-tetrahydro-1H-indazol-3-yl)methyl)-1-(6-methoxypyridin-3-yl)urea] has an EC50 (Protein) of 3800 nM, an inhibition at 30 µM (Protein) of 99.5% and an IC50 (intracellular HBV DNA; [2]) of 16 nM. It also gave a CC50 at 65 h [1] of 82500 nM and a viability at 65 h, 100 µM [1] of 4.6%.

From patent US20250009742A1 (priority 2021, published 2025)
